Test results as given in patent US20240382498A1, “NOVEL INHIBITOR OF HYPE-MEDIATED AMPYLATION” (Purdue Research Foundation, priority 2023, published 2024).
Where two headings read alike, the source gives them in different places.

Assays:
E234G HYPE [1] = molecular target: T1, E234G HYPE (Homo sapiens, UniProt Q9BVA6, E234G); assay: Fluorescence polarization (FP) microplate autoAMPylation assay with Fl-ATP, E234G HYPE inhibitor HTS, cherrypick validation and concentration-response; format: biochemical; conditions: for inhibition at 10 µM: 10 μM compound
T1 construct: Δ102 (aa 103-458) HYPE constructs (WT, E234G, and E234G/H363A); His6-SUMO (cleaved yes); made in house; host or cells: E. coli BL21-DE3-RILP
T1 sequence (Q9BVA6 103-458 E234G): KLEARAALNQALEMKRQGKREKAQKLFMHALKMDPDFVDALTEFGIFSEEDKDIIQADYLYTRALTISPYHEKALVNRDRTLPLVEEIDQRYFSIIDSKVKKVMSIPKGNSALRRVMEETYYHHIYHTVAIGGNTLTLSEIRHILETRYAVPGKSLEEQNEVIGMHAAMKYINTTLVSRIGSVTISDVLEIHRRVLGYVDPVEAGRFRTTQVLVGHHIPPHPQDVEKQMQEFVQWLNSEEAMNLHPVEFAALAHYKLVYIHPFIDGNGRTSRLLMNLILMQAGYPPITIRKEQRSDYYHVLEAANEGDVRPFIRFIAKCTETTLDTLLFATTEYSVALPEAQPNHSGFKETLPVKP
Protocol: Buffer optimization experiments were performed by incubating 0.4 μM of Δ102 HYPE enzyme with 25 nM Fl-ATP (final concentrations) in HTS buffer (50 mM HEPES (pH 7.5), 1 mM MgCl2, 0.1% Triton X-100, 1% DMSO) in the dark at room temperature for 10 min in 384-well black bottom, black wall microplates (20 μL reaction volume). Where specified, 1 mM MgCl2 was replaced with an equivalent concentration of MnCl2, or 0.1% Triton X-100 was replaced with 0.05% or 0.01% Trion X-100. Microplates were snap centrifuged at 1000 g for 10 sec. Microplates were loaded onto a BioTek BioStack NEO2 plate-reader and assessed for fluorescence polarization with 485/530 nm filters and a 55/50 gain adjustment.
A Multidrop 384 reagent dispenser (ThermoFisher) was used to add 0.4 μM HYPE, then 25 nM Fl-ATP (final concentrations) to 384-well black/black microplates (20 μL reaction volume). Both enzyme and nucleotide were dissolved in HTS Buffer. AMPylation Reactions were incubated for 10 min at room temperature in the dark. Microplates were snap centrifuged at 1000 g for 10 sec, then transferred to BioTek BioStack NEO2 plate-reader. Reactions were assessed for fluorescence polarization with 485/530 nm filters and a 55/50 gain adjustment. Z′, S/B, and CV values were determined by fitting the data to Eq. 1, 2, and 3, respectively,
An Echo Liquid Handler (Labcyte) was used to transfer 200 nL of DMSO-dissolved compounds via acoustic-coupled ejection from 10 mM source plates into 384-well black, flat-bottom, black-walled microplates, for a final compound concentration of 10 μM. Compounds were sourced from the following libraries: DIVERset (Chembridge), CNS-Set (Chembridge). The compounds went into columns 3-22 of each plate, while columns 1, 2, 23, and 24 were reserved for equivalent volume of 100% DMSO controls.
A Multidrop 384 reagent dispenser was used to pipette 0.4 μM of WT HYPE (final concentration) dissolved in HTS Buffer into columns 1-22 of the activator plates, and columns 1 and 2 of the inhibitor plates as positive controls. 0.4 μM of E234G HYPE was similarly added to columns 3-24 of the inhibitor plates, and columns 23 and 24 of the […]. Enzymes were then incubated with either compounds or DMSO for 10 min at room temperature.
A Multidrop 384 reagent dispenser was used to pipette 25 nM of Fl-ATP (final concentration) into all wells of each plate, giving a final reaction volume of 20 μL. Plates were then incubated for 10 min at room temperature in the dark, followed by a snap centrifugation at 1000 g for 10 sec. Microplates were loaded onto BioTek BioStack stacker and read in succession for fluorescence polarization with 485/530 nm filters and a 55/50 gain adjustment. Fluorescence polarization values were converted to fractional activation (FA) or fractional inhibition FI) values according to Eq. (3) or (4), respectively,
[formula] [formula] • where μp and μn are the means of the positive (E234G HYPE) and negative (WT HYPE) controls, respectively; and x is the measured value of fluorescence polarization.
Microplate “cherrypicking” validations were performed as described above.
A Multidrop 384 reagent dispenser was used to pipette 0.4 μM of WT or E234G HYPE (final concentrations) dissolved in HTS Buffer into designated microplate wells. 10 μM of DMSO-dissolved compounds (final concentrations) or equivalent volume of 100% DMSO were manually pipetted into their specified wells. Enzymes were incubated with compounds or DMSO for 10 min at room temperature. Reagent dispenser was then used to pipette 25 nM of Fl-ATP (final concentration) into each well, followed by a 10 min incubation at room temperature in the dark. Plates were snap centrifuged at 1000 g for 10 sec, then transferred to BioTek BioStack NEO2 plate-reader. Reactions were assessed for fluorescence polarization with 485/530 nm filters and a 55/50 gain adjustment. EC50 and IC50 values were determined by fitting polarization values to Eq. (5) and (6), respectively, […]

E234G HYPE [2] = molecular target: T1, E234G HYPE; assay: Radioactive in-gel autoAMPylation assay with E234G HYPE and α-32P-ATP; format: biochemical; conditions: 10 μM compound
Protocol: 1 μM of HYPE (final concentration) and (where specified) 5 μM of T229A BiP (final concentration) were preincubated with 10 μM DMSO-dissolved compound (final concentration) or equivalent volume of 100% DMSO at room temperature for 10 min in HTS Buffer. Reactions were run for 10 min at 30° C. and began with the addition of 0.01 μCi/μL α-32P-ATP (final concentration). All reactions were performed according to our previously described protocol for in vitro radioactive AMPylation assays19. Where specified, 5 μM of T229A BiP (final concentration) was added to reactions before the addition of compound.

c1cn(-c2ccc(-c3nnc(-c4ccoc4)o3)cn2)cn1 [Compound I2.10]
AMPylation at in vitro saturation point of inhibition (E234G HYPE [1]; 50 μM): zero percent AMPylation | IC50 (concentration-response of E234G HYPE inhibition) (E234G HYPE [1]; FP microplate, inhibitors 0 to 200 μM): low micromolar | inhibition at 10 µM (E234G HYPE [1]; cherrypick validation, same FP assay, read-out: % Inh. Cherry-pick): 29.7% | inhibition at 10 µM (E234G HYPE [1]; initial HTS, normalized to WT and E234G HYPE DMSO controls, read-out: % Inh. HTS): 24.5% | Mean % Inh. (E234G HYPE [1]; mean of HTS and cherrypick): 27.1% | inhibition of E234G HYPE autoAMPylation in gel (E234G HYPE [2]): bioactivity of I2.10 is mirrored
